Measurements from PubChem BioAssay (NCI).
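How tested: cells in 96-well plates exposed to compound for 48 hours at five concentrations. The concentration for full growth arrest is given as TGI.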 Where a SMILES comes first, the peptide text is derived from it.

Tests used:
Assay in all cases: NCI-60 cell line screen, 48 h
COLO 205 colon = tested on: COLO 205 colon
SF-295 CNS = tested on: SF-295 CNS
U251 CNS = tested on: U251 CNS
SN12C renal = tested on: SN12C renal
IGROV1 ovarian = tested on: IGROV1 ovarian
786-0 renal = tested on: 786-0 renal
K-562 leukemia = tested on: K-562 leukemia
NCI-H460 lung = tested on: NCI-H460 lung
UACC-62 melanoma = tested on: UACC-62 melanoma
CAKI-1 renal = tested on: CAKI-1 renal
NCI-H23 lung = tested on: NCI-H23 lung

SMILES: C=C1C(=O)OC2CC(=C)C3CC=C(C)C3CC12 (stereo not drawn)
- TGI (COLO 205 colon): 41.7 µM
- TGI (SF-295 CNS): > 100 µM
- TGI (U251 CNS): 29.6 µM
- TGI (SN12C renal): 31.7 µM
- TGI (IGROV1 ovarian): 55.5 µM
- TGI (786-0 renal): 31.3 µM
- TGI (K-562 leukemia): 24.4 µM
- TGI (NCI-H460 lung): > 100 µM
- TGI (UACC-62 melanoma): 25.3 µM
- TGI (CAKI-1 renal): 28.2 µM

SMILES: O=C(CCCl)NNC1=NCCCCN1
- TGI (COLO 205 colon): > 100 µM
- TGI (SF-295 CNS): > 100 µM
- TGI (U251 CNS): > 100 µM
- TGI (SN12C renal): > 100 µM
- TGI (IGROV1 ovarian): > 100 µM
- TGI (786-0 renal): > 100 µM
- TGI (K-562 leukemia): > 100 µM
- TGI (NCI-H460 lung): > 100 µM
- TGI (UACC-62 melanoma): > 100 µM
- TGI (NCI-H23 lung): > 100 µM

SMILES: COc1cc(S(=O)(=O)Nc2ccc(-c3csc(N4C(=O)C(Cl)C4c4ccccc4)n3)cc2)ccc1Cl (stereo not drawn)
- TGI (COLO 205 colon): > 100 µM
- TGI (SF-295 CNS): > 100 µM
- TGI (SN12C renal): 94 µM
- TGI (IGROV1 ovarian): 22.4 µM
- TGI (786-0 renal): 49 µM
- TGI (K-562 leukemia): > 100 µM
- TGI (NCI-H460 lung): > 100 µM
- TGI (UACC-62 melanoma): 51.2 µM
- TGI (CAKI-1 renal): > 100 µM
- TGI (NCI-H23 lung): 89.3 µM

SMILES: COC(=O)C1=CN(C2CCCCC2)C2(c3ccccc3)c3ccccc3C(=O)OC(=O)C12 (stereo not drawn)
- TGI (COLO 205 colon): > 100 µM
- TGI (SF-295 CNS): > 100 µM
- TGI (U251 CNS): > 100 µM
- TGI (SN12C renal): > 100 µM
- TGI (IGROV1 ovarian): > 100 µM
- TGI (786-0 renal): > 100 µM
- TGI (K-562 leukemia): > 100 µM
- TGI (NCI-H460 lung): > 100 µM
- TGI (CAKI-1 renal): > 100 µM
- TGI (NCI-H23 lung): > 100 µM

SMILES: CN(C)S(=O)(=O)n1cnc(CO)c1
- TGI (COLO 205 colon): > 100 µM
- TGI (SF-295 CNS): > 100 µM
- TGI (U251 CNS): > 100 µM
- TGI (SN12C renal): > 100 µM
- TGI (IGROV1 ovarian): > 100 µM
- TGI (786-0 renal): > 100 µM
- TGI (K-562 leukemia): > 100 µM
- TGI (NCI-H460 lung): > 100 µM
- TGI (CAKI-1 renal): > 100 µM
- TGI (NCI-H23 lung): > 100 µM

SMILES: O=C(N/N=C/c1ccccc1O)c1ccccc1Nc1ccccc1C(=O)N/N=C/c1ccccc1O
- TGI (COLO 205 colon): > 100 µM
- TGI (SF-295 CNS): > 100 µM
- TGI (U251 CNS): > 100 µM
- TGI (IGROV1 ovarian): > 100 µM
- TGI (786-0 renal): > 24.2 µM
- TGI (K-562 leukemia): > 100 µM
- TGI (NCI-H460 lung): > 100 µM
- TGI (UACC-62 melanoma): > 100 µM
- TGI (CAKI-1 renal): > 100 µM
- TGI (NCI-H23 lung): > 100 µM

SMILES: O=C(O)CN1CCN(CC(=O)N2CCN(C(=O)OCc3ccccc3)CC2)CCN(CC(=O)O)CCN(CC(=O)N2CCN(C(=O)OCc3ccccc3)CC2)CC1
- TGI (COLO 205 colon): > 100 µM
- TGI (SF-295 CNS): > 100 µM
- TGI (U251 CNS): > 100 µM
- TGI (SN12C renal): > 100 µM
- TGI (IGROV1 ovarian): > 100 µM
- TGI (786-0 renal): > 100 µM
- TGI (K-562 leukemia): > 100 µM
- TGI (NCI-H460 lung): > 100 µM
- TGI (UACC-62 melanoma): > 100 µM
- TGI (CAKI-1 renal): > 100 µM

SMILES: COc1ccc(/C=C2\Sc3nnc(CNc4ccc(Cl)cc4)n3N=C2c2cc(F)c(Cl)cc2Cl)cc1OC
- TGI (SF-295 CNS): > 100 µM
- TGI (U251 CNS): > 100 µM
- TGI (IGROV1 ovarian): > 100 µM
- TGI (786-0 renal): > 100 µM
- TGI (K-562 leukemia): > 100 µM
- TGI (NCI-H460 lung): > 100 µM
- TGI (CAKI-1 renal): 80.5 µM
- TGI (NCI-H23 lung): > 100 µM

SMILES: SCc1ccc(CS)s1
- TGI (COLO 205 colon): > 100 µM
- TGI (SF-295 CNS): > 100 µM
- TGI (U251 CNS): > 100 µM
- TGI (SN12C renal): > 100 µM
- TGI (IGROV1 ovarian): > 100 µM
- TGI (786-0 renal): > 100 µM
- TGI (K-562 leukemia): > 100 µM
- TGI (NCI-H460 lung): > 100 µM
- TGI (UACC-62 melanoma): > 100 µM
- TGI (NCI-H23 lung): > 100 µM

SMILES: CC(C)CC(NC(=O)C(Cc1ccccc1)NC(=O)C(Cc1c[nH]c2ccccc12)NC(=O)CNC(=O)C(N)Cc1ccc(O)cc1)C(=O)O (stereo not drawn) (H-YGWFL-OH; configuration not given here)
- TGI (COLO 205 colon): 32.9 µM
- TGI (SF-295 CNS): 88.6 µM
- TGI (U251 CNS): > 100 µM
- TGI (SN12C renal): > 100 µM
- TGI (IGROV1 ovarian): > 100 µM
- TGI (786-0 renal): 49.4 µM
- TGI (NCI-H460 lung): > 100 µM
- TGI (UACC-62 melanoma): > 100 µM
- TGI (CAKI-1 renal): > 100 µM
- TGI (NCI-H23 lung): > 100 µM
